From patent US20170050957A1, “4-AMINO-6-(HETEROCYCLIC)PICOLINATES AND 6-AMINO-2-(HETEROCYCLIC)PYRIMIDINE-4-CARBOXYLATES AND THEIR USE AS HERBICIDES” (Dow AgroSciences LLC, priority 2013, published 2017)
Like-named read-outs stand apart in the source and are kept apart here.

Legend:
[1] = system: Key Grass and Sedge Weeds as well as Grass Crops; experiment: Post-emergent Test II herbicidal activity (Table 16); assay type: in vivo; conditions: post-emergence, 336 h, 14 days after application; for pest or weed control at 35 g/ha: 35 g ai/ha; for pest or weed control at 70 g/ha: 70 g ai/ha; for pest or weed control at 140 g/ha: 140 g ai/ha; for pest or weed control at 280 g/ha: 280 g ai/ha
Summary of the method: (§1)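 Visual injury rating (0 = none, 100% = complete kill) made 14 d after treatment, relative to untreated plants. Compounds in an acetone/DMSO/aqueous crop-oil/surfactant spray, at top rate and serial 1/2×-1/16× rates, were applied at 187 L/ha overhead to first-second true leaf plants raised 7-21 d in greenhouse.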

[2] = system: Key Broadleaf Weed and Crop Species; experiment: Post-emergent Test II herbicidal activity (Table 15); assay type: in vivo; conditions: post-emergence, 336 h, 14 d; for pest or weed control at 35 g/ha: 35 g ai/ha; for pest or weed control at 70 g/ha: 70 g ai/ha; for pest or weed control at 140 g/ha: 140 g ai/ha; for pest or weed control at 280 g/ha: 280 g ai/ha
Summary of the method: as §1

[3] = Cyperus esculentus, yellow nutsedge (Cyperus esculentus), read-out: Visual Growth Reduction (%) 14 Days After Application CYPES
[4] = Echinochloa crus-galli, barnyardgrass (Echinochloa crus-galli), read-out: Visual Growth Reduction (%) 14 Days After Application ECHCG
[5] = Oryza sativa, rice (Oryza sativa), read-out: Visual Growth Reduction (%) 14 Days After Application ORYSA
[6] = Setaria faberi, giant foxtail (Setaria faberi), read-out: Visual Growth Reduction (%) 14 Days After Application SETFA
[7] = Triticum aestivum, wheat, spring (Triticum aestivum), read-out: Visual Growth Reduction (%) 14 Days After Application TRZAS
[8] = Zea mays, maize, corn (Zea mays), read-out: Visual Growth Reduction (%) 14 Days After Application ZEAMX
[9] = Abutilon theophrasti, velvetleaf (Abutilon theophrasti), read-out: Visual Growth Reduction (%) 14 Days After Application, ABUTH
[10] = Amaranthus retroflexus, redroot pigweed (Amaranthus retroflexus), read-out: Visual Growth Reduction (%) 14 Days After Application, AMARE
[11] = Brassica napus, oilseed rape, canola (Brassica napus), read-out: Visual Growth Reduction (%) 14 Days After Application, BRSNN
[12] = Chenopodium album, lambsquarters (Chenopodium album), read-out: Visual Growth Reduction (%) 14 Days After Application, CHEAL
[13] = Euphorbia heterophylla, wild poinsettia (Euphorbia heterophylla), read-out: Visual Growth Reduction (%) 14 Days After Application, EPHHL
[14] = Helianthus annuus, sunflower (Helianthus annuus), read-out: Visual Growth Reduction (%) 14 Days After Application, HELAN

## COC(=O)c1nc(-c2cccc3ccsc23)cc(N)c1Cl [Compound 3.27]
[1]; [3]
  pest or weed control at 35 g/ha: 0 to 29%
  pest or weed control at 70 g/ha: 0 to 29%
  pest or weed control at 140 g/ha: 0 to 29%
  pest or weed control at 280 g/ha: 0 to 29%
[1]; [4]
  pest or weed control at 35 g/ha: 0 to 29%
  pest or weed control at 70 g/ha: 0 to 29%
  pest or weed control at 140 g/ha: 0 to 29%
  pest or weed control at 280 g/ha: 0 to 29%
[1]; [5]
  pest or weed control at 35 g/ha: 0 to 29%
  pest or weed control at 70 g/ha: 0 to 29%
  pest or weed control at 140 g/ha: 0 to 29%
  pest or weed control at 280 g/ha: 0 to 29%
[1]; [6]
  pest or weed control at 35 g/ha: 0 to 29%
  pest or weed control at 70 g/ha: 0 to 29%
  pest or weed control at 140 g/ha: 0 to 29%
  pest or weed control at 280 g/ha: 0 to 29%
[1]; [7]
  pest or weed control at 35 g/ha: 0 to 29%
  pest or weed control at 70 g/ha: 0 to 29%
  pest or weed control at 140 g/ha: 0 to 29%
  pest or weed control at 280 g/ha: 0 to 29%
[1]; [8]
  pest or weed control at 35 g/ha: 0 to 29%
  pest or weed control at 70 g/ha: 0 to 29%
  pest or weed control at 140 g/ha: 0 to 29%
  pest or weed control at 280 g/ha: 0 to 29%
[2]; [9]
  pest or weed control at 35 g/ha: 0 to 29%
  pest or weed control at 70 g/ha: 0 to 29%
  pest or weed control at 140 g/ha: 45 to 59%
  pest or weed control at 280 g/ha: 75 to 84%
[2]; [10]
  pest or weed control at 35 g/ha: 85 to 94%
  pest or weed control at 70 g/ha: 95 to 100%
  pest or weed control at 140 g/ha: 95 to 100%
  pest or weed control at 280 g/ha: 95 to 100%
[2]; [11]
  pest or weed control at 35 g/ha: 45 to 59%
  pest or weed control at 70 g/ha: 60 to 74%
  pest or weed control at 140 g/ha: 60 to 74%
  pest or weed control at 280 g/ha: 85 to 94%
[2]; [12]
  pest or weed control at 35 g/ha: 75 to 84%
  pest or weed control at 70 g/ha: 85 to 94%
  pest or weed control at 140 g/ha: 95 to 100%
  pest or weed control at 280 g/ha: 95 to 100%
[2]; [13]
  pest or weed control at 35 g/ha: 0 to 29%
  pest or weed control at 70 g/ha: 0 to 29%
  pest or weed control at 140 g/ha: 0 to 29%
  pest or weed control at 280 g/ha: 0 to 29%
[2]; [14]
  pest or weed control at 35 g/ha: 45 to 59%
  pest or weed control at 70 g/ha: 60 to 74%
  pest or weed control at 140 g/ha: 75 to 84%
  pest or weed control at 280 g/ha: 85 to 94%
